Test results reported in patent US5157019A, “Serine protease inhibitors” (Monsanto Company, priority 1991, dated 1992).
Bridge positions count the residues as written; N and C are the ends. Ends that are not written are not given here.

What was measured:
Type in all cases: biochemical
tPA = biological target: T1, tPA (Homo sapiens, UniProt P00750); assay: Tissue plasminogen activator (tPA) assay (S2288); conditions: for inhibition at 10 µM: 10 μM peptide
T1 construct: Enzyme tPA, 2 chain activity standard; purchased American Diagnostica, Inc. 116
Protocol: Substrate H-D-Ile-Pro-Arg-pNA·2HCl (S2288, Kabi), 10 mM in deionized water; may be frozen for future use.
Buffer 50 mM Tris·HCl, pH 7.4 containing 0.01% Tween 80.
Inhibitor […] in deionized water.
Enzyme tPA, 2 chain activity standard (Catalog #116, American Diagnostica, Inc.); stock solution=10 μL of original solution per mL in buffer.
Mix 200 μL of buffer, 200 μL of deionized water (control) or inhibitor solution and 40 μL of substrate solution. Incubate for 2 min. at 37° C., add 40 μL of enzyme, mix, and measure rate spectrophotometrically at 405 nm for about 5 min. Inhibition (%) is calculated in the same manner as in previous assays.

Cathepsin G = biological target: T2, Cathepsin G (Homo sapiens, UniProt P08311); assay: Cathepsin G assay (Suc-Ala-Ala-Pro-Phe-pNA, 410 nm); conditions: 200 μM peptide (head of Table IX)
T2 construct: purchased Elastin Products Company (EPC) SG-45
T2 sequence (P08311 21-255): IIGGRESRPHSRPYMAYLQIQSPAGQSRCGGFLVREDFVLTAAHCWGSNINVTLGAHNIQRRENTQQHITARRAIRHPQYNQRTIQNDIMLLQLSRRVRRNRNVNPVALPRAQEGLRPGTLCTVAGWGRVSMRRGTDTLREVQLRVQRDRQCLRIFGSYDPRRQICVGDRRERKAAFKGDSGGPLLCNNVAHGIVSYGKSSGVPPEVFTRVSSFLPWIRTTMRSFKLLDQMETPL
Protocol: Reference: Elastin Products Company (EPC) technical data sheet, cathepsin G, No. SG-45.
Method: Spectrophotometric rate determination
A) Buffer; 0.1M Tris, pH 7.5 at 25° C.
B) Substrate; 60 mM Suc-Ala-Ala-Pro-Phe-pNA obtained from Sigma Chemical Company. Solution prepared by dissolving 50 mg substrate in 1.3 ml of 1-methyl-2-pyrrolidinone. Stored at 5° C.
C) Peptide Inhibitors; 200 μM HCl salt. Depending on peptide solubility, dissolved in buffer or DMSO and then buffer added for a final concentration of 10% DMSO.
D) Enzyme; Cathepsin G, EPC SG-45, lot 85117 used for all assays, 0.0077 mg protein per mg solid determined by supplier by Bradford method. Enzyme was dissolved in buffer at a concentration of approx. 5 mg/ml solid. Solution stored on ice, used within 2 hours.
Pipetted the following into semi-micro quartz cuvettes: 0.3 ml buffer, 0.15 ml peptide solution and 0.5 ml of substrate solution. Equilibrate for 5 min. at 25° C., then add 0.05 ml of enzyme solution and monitor the release of pNA spectrophotometrically at 410 nm for at least 3 minutes. The controls contain either 0.45 ml of buffer or 20% DMSO in buffer (for a final concentration of 10% DMSO).
The rate (O.D./min) is obtained as an average over 3 minutes. [formula]

HUMAN SPUTUM ELASTASE = biological target: T3, HUMAN SPUTUM ELASTASE (Homo sapiens, UniProt P08246); assay: Elastase assay (MeO-Suc-Ala-Pro-Val-pNA); conditions: 200 μM peptide
T3 construct: HUMAN SPUTUM ELASTASE; purchased Elastin Products Company SE563; host or cells: human sputum (from the product name)
T3 sequence (P08246 30-267): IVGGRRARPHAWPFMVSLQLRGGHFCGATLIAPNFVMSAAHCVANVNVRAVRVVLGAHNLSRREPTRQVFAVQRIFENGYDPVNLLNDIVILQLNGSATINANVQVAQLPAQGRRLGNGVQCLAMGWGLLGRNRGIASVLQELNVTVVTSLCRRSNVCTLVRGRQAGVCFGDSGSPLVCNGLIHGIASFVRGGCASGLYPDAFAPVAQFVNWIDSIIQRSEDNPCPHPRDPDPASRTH
Protocol: Enzyme used is "HUMAN SPUTUM ELASTASE®" which is an enzyme which is the target protease for α1 antitrypsin from Elastin Products Company, Catalog No. SE563, lot 85071, 875 units/mg as determined by supplier with N-Suc-Ala-Ala-Ala-pNA; prepared at 0.2 mg/mL in 0.1M Tris·HCl, pH 8.8 at 37 degrees C. An amount of enzyme is used to give approximately 0.1 change in Absorbance/min; which in this assay was 1 μg.
The substrate is MeO-Suc-Ala-Pro-Val-pNA, Sigma Catalog No. M-4765. About 50 mg of the substrate is dissolved in 1 ml of 1-methyl-2-pyrrolidinone and diluted to 33 mls. with 0.1M Tris-HCl, pH 7.5, containing 0.5M NaCl, and 0.01 wt % sodium azide.
Peptide solutions are prepared at 500 μM, using 1.5% of the final volume of DMSO first and diluting with distilled water (DW) or 0.1M Tris.HCl, pH 8.8 at 37 degrees C. [formula]

Thrombin = Thrombin (Homo sapiens, UniProt P00734); assay: Coagulation inhibition assay, thrombin (fibrinogen clotting end point); conditions: 40 μM peptide
Protocol: Inhibitory activity of subject peptides toward thrombin and Factor Xa were done in the following manner. Mix 100 μL Thrombin (3.125 units/ml, 1.125 μg/ml) in TAB with […] Peptide in TAB and incubate for 1 minute at 37° C. Add 50 μL Fibrinogen (2 mg/ml)and measure clotting end point (in seconds) in a Fibrometer (BBL) TAB=Thrombin Assay Buffer: 0.15M NaCl, 6.6 gm/L PEG-6000, 0.01M Imidazole, 0.01 CaCl2, pH 7.4

Factor D = biological target: T4, Factor D (Homo sapiens, UniProt P00746); assay: Factor D assay by inhibition of fluid phase Factor B activation; conditions: Table X; μM concentration at which protease was inhibited 50%; read-out: IC50 D
T4 construct: prepared from pooled human plasma; from tissue; host or cells: pooled human plasma
Protocol: (§1) Highly purified C3, C4, Factor D, Factor B, and C1s were prepared from pooled human plasma. Factors B and C4 were radiolabeled by periodate oxidation of sialic acid residues, followed by reduction with tritiated sodium borohydride. In a representative experiment, a solution of 1.2 mg of factor B in 1.8 ml of PBS was treated with 70 μl of 0.1M NaIO4. After 10 min incubation on ice, excess reagent was removed by filtration over "SEPHADEX®" which is a matrix for gel chromatography (1.0 cm×20 cm). To the protein pool was added 60 μl of NaB[^3 H]4 solution and incubated for 30 min on ice. Labeled protein was separated from excess reagent by desalting or dialysis. Human C4 was radiolabeled in the same manner. Radiolabeled proteins were stored at -70° C. in PBS. The specific radioactivity of ^3 H factor B was about 10,000 CPM/μg and that of ^3 H-C4 was 5,000 CPM/μg.
The effect of the peptides on Factor D-dependent cleavage of factor B was studied by incubating 3.5 μg of Factor B, 1.5 μg of C3(H2 O) and 0.2 μl of Factor D at 37° C. for 60 min in Mg-PBS containing different concentrations of inhibitor. Uncleaved Factor B and its fragments, Ba and Bb, were first separated by SDS-PAGE and analyzed as described above. The percent cleavage of the reaction was calculated as follows: [formula]
B=radioactivity (CPM) of uncleaved factor B
Bb=radioactivity (CPM) of fragment Bb
Ba=radioactivity (CPM) of fragment Ba
(§2) Electrophoresis was carried out under reducing conditions in the Laemmli system using slab gel of 8% polyacrylamide. The gels were stained and destained (Fairbanks et al. Biochemistry (1971) 10:2606).
(§3) The percent inhibition of the reaction was calculated according to the following relationship: [formula]
(§4) A: % cleavage without inhibitor
(§5) B: % cleavage with inhibitor
(§6) The concentration inducing 50% inhibition was obtained by plotting the percent inhibition on a probability graph (National Blank Book Co., No. 12-083) on the ordinate and the log of the inhibitor concentration on the abscissa. From this graph, a 50% inhibition concentration IC50 was obtained and this value was employed to express the activity.

C1s = biological target: T5, C1s (Homo sapiens, UniProt P09871); assay: C1s assay by inhibition of fluid phase C4 activation; conditions: Table X; μM concentration at which protease was inhibited 50%; read-out: IC50 C1S
T5 construct: prepared from pooled human plasma; from tissue; host or cells: pooled human plasma
T5 sequence (P09871 16-688): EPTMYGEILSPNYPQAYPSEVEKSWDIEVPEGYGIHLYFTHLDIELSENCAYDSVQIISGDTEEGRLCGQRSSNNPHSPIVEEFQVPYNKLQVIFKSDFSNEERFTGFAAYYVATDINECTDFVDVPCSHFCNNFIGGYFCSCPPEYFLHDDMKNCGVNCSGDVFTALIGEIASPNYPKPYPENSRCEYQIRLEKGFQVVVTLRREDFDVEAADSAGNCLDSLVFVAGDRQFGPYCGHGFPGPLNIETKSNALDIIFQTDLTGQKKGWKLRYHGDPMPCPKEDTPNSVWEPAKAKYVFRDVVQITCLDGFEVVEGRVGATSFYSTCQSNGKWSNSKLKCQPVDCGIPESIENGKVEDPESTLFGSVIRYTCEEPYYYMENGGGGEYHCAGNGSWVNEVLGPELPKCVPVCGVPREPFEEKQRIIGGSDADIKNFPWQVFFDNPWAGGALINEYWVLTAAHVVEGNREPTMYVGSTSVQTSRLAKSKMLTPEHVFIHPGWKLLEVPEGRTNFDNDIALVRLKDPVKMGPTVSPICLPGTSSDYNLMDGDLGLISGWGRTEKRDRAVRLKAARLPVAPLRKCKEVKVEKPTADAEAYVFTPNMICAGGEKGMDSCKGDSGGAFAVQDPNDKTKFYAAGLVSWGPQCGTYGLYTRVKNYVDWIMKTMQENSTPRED
Protocol: as §1
The cleavage of C4 was studied by incubating 10 μg of tritiated C4 with 3-5 ng of C1s at 37° C. for 30 min in 100 μl of PBS (pH 7.10) containing different concentrations of inhibitor. The reaction was stopped by the addition of 2-mercaptoethanol. The extent of cleavage was analyzed by SDS-polyacrylamide gel electrophoresis. The stained bands corresponding to C4α and C4α' were cut out and sliced. The radioactivity of the fragments was measured by liquid scintillation counting. The percent cleavage of the reaction was calculated as follows: [formula]
as §2, §3, §4, §5, §6

T1 sequence (P00750 311-562 limits assumed): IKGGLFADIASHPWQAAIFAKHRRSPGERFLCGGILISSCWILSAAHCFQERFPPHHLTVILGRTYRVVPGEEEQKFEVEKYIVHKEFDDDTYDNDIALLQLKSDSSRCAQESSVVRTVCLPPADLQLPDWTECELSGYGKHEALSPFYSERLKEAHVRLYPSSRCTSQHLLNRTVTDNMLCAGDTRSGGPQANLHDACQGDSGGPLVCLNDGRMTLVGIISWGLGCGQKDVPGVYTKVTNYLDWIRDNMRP
T1 sequence (P00750 36-310 partner limits assumed): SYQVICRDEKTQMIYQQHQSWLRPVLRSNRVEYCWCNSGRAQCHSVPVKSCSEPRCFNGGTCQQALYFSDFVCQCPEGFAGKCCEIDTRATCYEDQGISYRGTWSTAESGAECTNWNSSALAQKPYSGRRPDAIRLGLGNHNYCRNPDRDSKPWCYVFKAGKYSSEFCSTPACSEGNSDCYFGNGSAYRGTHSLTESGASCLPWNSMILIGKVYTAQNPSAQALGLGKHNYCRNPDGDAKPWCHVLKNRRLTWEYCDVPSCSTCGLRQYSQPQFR
T4 sequence (P00746 26-253): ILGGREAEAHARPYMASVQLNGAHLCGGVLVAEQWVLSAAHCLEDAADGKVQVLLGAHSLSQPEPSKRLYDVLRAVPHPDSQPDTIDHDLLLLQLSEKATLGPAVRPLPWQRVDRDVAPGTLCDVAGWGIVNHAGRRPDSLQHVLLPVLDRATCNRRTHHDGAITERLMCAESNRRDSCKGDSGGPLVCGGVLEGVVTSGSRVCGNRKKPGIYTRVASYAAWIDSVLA

Sequence | Cathepsin G Inhibition (Cathepsin G) [%] | Elastase Inhibition (HUMAN SPUTUM ELASTASE) [%] | also measured
RPFLVFILPNIFLGRVAN [Peptide 42] | – | – | inhibition at 10 µM (tPA): 44%
AGRSLNPNRTIVRFNRPFLLII [Peptide 11] | – | – | inhibition at 200 µM (Cathepsin G): 40%; inhibition at 200 µM (HUMAN SPUTUM ELASTASE): 15%; inhibition at 40 µM (Thrombin): 81%
FLEAIPMSIPPTFKANRPFLVFI [Peptide 8] | 44 | 77 | Thrombin inhibition (Thrombin): 30%
IAGRSLNPNPPEVKFKNPFVFLI [Peptide 5] | 0 | 0 | –
TLLSALVETPPEVKFKNPFVFLI [Peptide 6] | 0 | 17 | –
FLEAIPMSIPPEVKFNKPFVFLI [Peptide 4] | – | – | inhibition at 200 µM (Cathepsin G): 14%; inhibition at 200 µM (HUMAN SPUTUM ELASTASE): 70%
TLLSALVETRVTFKANRPFLVFI [Peptide 9] | 41 | – | Thrombin inhibition (Thrombin): 32%
RPFLVFLPNILRVANP [Peptide 46] | – | – | inhibition at 10 µM (tPA): 0%
RPFLVFIRPNDFLGRVANP [Peptide 41] | – | – | inhibition at 10 µM (tPA): 8%
TLLSALVETRTIVRFNRPFLLIIVPTDTQNIFFLSKVTNPSKPR [Peptide 30] | 38 | – | –
IAGRSLNPNRVTFKANRPFCVFIREVPLNTIIFLGCVANPAVK (disulfide 20-36) [Peptide 45] | – | – | inhibition at 20 µM (tPA; 20 μM peptide): 69%
IDGRIVEGSRVTFKANRPFLVFI [Peptide 18] | – | – | IC50 (Factor D): 43 µM; IC50 (C1s): 40 µM
RPFLVFILPNIFLGRVANP [Peptide 39] | – | – | inhibition at 10 µM (tPA): 55%
LQRALEILRVTFKANRPFLVFI [Peptide 14] | – | – | IC50 (Factor D): 8 µM; IC50 (C1s): 9 µM
TLLSALVETRTIVKFNKPFVFLLIEQNTKSPLFLGKVVNPTQK [Peptide 26] | 0 | – | –
FLEAIPMSIPPIVRFNRPFLLII [Peptide 19] | – | 100 | –
TLLSALVETRTIVRFNRPFLLII [Peptide 10] | 65 | 0 | –
FLEAIPMSIRTIVRFNRPFLLII [Peptide 12] | 51 | 0 | –
RPFLVFILPGIFLGRVANP [Peptide 38] | – | – | inhibition at 10 µM (tPA): 59%
RPFLVFIRPGDIFLGRVANP [Peptide 40] | – | – | inhibition at 10 µM (tPA): 39%
PFLVFILPNIFLGRVAN [Peptide 43] | – | – | inhibition at 10 µM (tPA): 7%
IAGRSLNPNRVTVKFNKPFVFLLIEQNTKSPLFLGKVVNPTQK [Peptide 25] | 35 | 0 | –
FLEAIPMSIPPRVTFKANRPFLVFIREVPLNTIIFLGRVANP [Peptide 28] | 16 | 0 | –
RPFLVFILPNIFLRVANP [Peptide 44] | – | – | inhibition at 10 µM (tPA): 55%
FLEAIPMSIPPEVKFNKPFVFLLIEQNTKSPLFLGKVVNPTQK [Peptide 24] | 0 | 26 | –

The next lines start with results.

Cathepsin G Inhibition (Cathepsin G) [%] | Elastase Inhibition (HUMAN SPUTUM ELASTASE) [%] | Sequence | also measured
54 | 0 | IAGRSLNPNIVRFNRPFLLIIVPTDTQNIFFLSKVTNPSKPR [Peptide 31] | –
0 | 0 | FLEAIPMSIPPIVRFNRPFLLIIVPTDTQNIFFLSKVTNPSKPR [Peptide 32] | –
35 | 0 | IAGRSLNPNRVTLRYNKPFILVLFETPGNSLVFLGRISNPATK [Peptide 33] | –
